Entries after “also recorded” stand apart in the source; their conditions may differ.
How the values were obtained:
[1] = test system: PBMCs from patients with cancer and healthy donors; experiment: IFN-γ ELISPOT assay on PBMCs; assay type: cell-based, human; conditions: for IFN-γ ELISPOT response, significance according to the DFR test / IFN-γ ELISPOT response, significance according to the DFR×2 rule: 5 selected PBMCs, patients with malignant melanoma; for specific T-cell responses, IFN-γ ELISPOT in vitro assay: PBMCs from HLA-A2+ patients with cancer, stimulated once in vitro with peptide; for immune responses, IFN-γ ELISPOT assay: PBMCs from healthy donors; for CD4+ T cell responses against long peptides, IFN-γ ELISPOT assay: PBMCs from 11 patients with cancer and 11 healthy donors
Experimental: (§1) We collected blood samples from patients with melanoma, renal cell carcinoma, non-hodgkin lymphoma, and ovarian cancer and from healthy. Samples were collected a minimum of four weeks after the termination of any kind of anti-cancer therapy. Peripheral blood mononuclear cells (PBMCs) were isolated using Lymphoprep™ (Alere A S, cat. 1114547) separation, HLA-typed and frozen in FCS with 10% DMSO (Sigma-Aldrich, cat. D5879-100ML). Tumor Infiltrating lymphocytes (TIL) from lesions from two melanoma patients were expanded using high dose IL-2 (6000 units/ml). The protocol was approved by the Scientific Ethics Committee for The Capital Region of Denmark and conducted in accordance with the provisions of the Declaration of Helsinki. Before study entry, a written informed consent from the patients was obtained.
(§2) The IFN-γ and TNF-α ELISPOT technique was performed as described previously (3). We performed the assays according to the guidelines provided by the cancer immunotherapy immunoguiding program (CIP; cimt.eu/cimt/files/dl/cip guidelines.pdf). Unless stated otherwise, PBMCs were stimulated once in vitro with peptide prior to analysis to extend the sensitivity of the assay. To measure T-cell reactivity, nitrocellulose-bottomed 96-well plates (MultiScreen MSIPN4W; Millipore) were coated overnight at room temperature or two days at 4° C. with the relevant antibodies. The wells were washed and blocked with X-vivo medium for 2 h. The PBMCs were added at different cell concentrations in triplicate wells, with PD-L2 peptide or with control peptide, and incubated overnight. The following day, the wells were washed, and the relevant biotinylated secondary antibody (Mabtech) was added, followed by the avidin-enzyme conjugate (AP-Avidin; Calbiochem/Invitrogen Life Technologies); finally, we added the enzyme substrate, NBT/BCIP (Invitrogen Life Technologies) for visualization. The spots on the developed ELISPOT plates were analyzed on a CTL ImmunoSpot S6 Ultimate-V analyzer with Immunospot software, v5.1.
An ELISPOT response was defined, based on the guidelines and recommendations provided by CIP and Moodie et al (5). The non-parametric distribution-free resampling (DFR) and more conservative DFR×2 statistical test were used for a formal comparison between antigen-stimulated wells and negative-control wells. The ELISPOT assays were performed at least in triplicate.

[2] = test system: PBMCs from patients with malignant melanoma; experiment: TNF-α ELISPOT assay on PBMCs; assay type: cell-based, human; conditions: 5 selected PBMCs
Experimental: as §1
The IFN-γ and TNF-α ELISPOT technique was performed as described previously (3). We performed the assays according to the guidelines provided by the cancer immunotherapy immunoguiding program (CIP; cimt.eu/cimt/files/dl/cip guidelines.pdf). Unless stated otherwise, PBMCs were stimulated once in vitro with peptide prior to analysis to extend the sensitivity of the assay. […] The spots on the developed ELISPOT plates were analyzed on a CTL ImmunoSpot S6 Ultimate-V analyzer with Immunospot software, v5.1. […]

[3] = test system: TAP deficient T2 cells pulsed with peptide; experiment: 51chromium-release cytotoxicity assay, PD-L2-specific T-cell cultures against peptide-pulsed T2 cells; assay type: cell-based, human; conditions: cultures A and B
Experimental: (§3) PBMCs from a patient with melanoma were stimulated with irradiated (30 Gy) autologous DCs, which had been pulsed with PD-L205 (PD-L2(16-25)) peptide (PBL:DC ratio 10:1) and IL-7 (40 U/ml) were added (PeproTech, London, UK). The next day, IL-12 (20 U/ml) was added (PeproTech, London, UK). At weekly intervals, we performed three identical stimulations, with irradiated autologous DCs loaded with PDL205 (PD-L2(16-25)), and IL-12 (20 U/ml) added the next day. Then, at weekly intervals, we stimulated the culture three more times with irradiated autologous PBLs loaded with PDL205 (PD-L2(16-25)) (culture:PBL ratio 1:1), but the next day, we added IL-2 (120 U/ml; Proleukin, Novartis).
(§4) The culture was enriched for specific T cells, either by staining with an anti-CD137-PE antibody (BD-Biosciences) or by employing a TNF-α-enrichment and detection kit (according to the procedure by Miltenyi Biotec). Next, we performed magnetic cell isolation with a MACs microbead column (according to the procedure by Miltenyi Biotec). The sorted cells were rapidly expanded by incubating with 0.6 μg anti-CD3 antibody (eBioscience, clone OKT3) and a high dose of IL-2 (Proleukin, Novartis).
(§5) Cytotoxicity Assay PD-L1-specific and PD-L2-specific T-cell-mediated cytotoxicity was measured with conventional 51chromium-release assays, as previously described (4). Target cells were TAP deficient T2 cells, pulsed with HIV-1 pol476-484 ([…], SEQ ID NO: 26), PD-L101 (PD-L1(15-23)), or PD-L205 (PD-L2(16-25)). siRNA-Mediated PD-L2 Silencing of DCs

[4] = test system: TAP-deficient T2 cells pulsed with peptide; experiment: 51Cr release assay, PD-L101-specific T-cell culture against peptide-pulsed T2 cells; assay type: cell-based, human; conditions: different effector-to-target ratios
Experimental: as §5

[5] = test system: PD-L101-specific CD8+ T cells; experiment: Intracellular cytokine staining of PD-L101-specific T-cell culture; assay type: cell-based, human
Experimental: (§6) To detect cell subpopulations that produced cytokines, we stimulated a PD-L1-specific T-cell culture (previously described (1)) and a PD-L2-specific T-cell culture with 5 μg/ml of relevant or irrelevant peptide, and incubated the cells for 5 h at 37° C. with 5% CO2. After 1 h of incubation, we added GolgiPlug (BD), diluted at 1:200. After 4 h, cells were washed twice with PBS, stained with fluorochrome-conjugated antibodies specific for surface markers (CD3-APC-H7, CD4-PerCP/FITC, CD8-Pacific Blue/PerCP, and Horizon Fixable Viability Stain 510, all from BD). Cells were washed, fixed, and permeabilized with Fixation/Permeabilization and Permeabilization Buffer (eBioscience), according to the manufacturer's instructions. Cells were subsequently stained with fluorochrome-conjugated antibodies to visualize intracellular cytokines. The following antibody-fluorochrome combinations were used: IFNγ-PE-CY7/APC (eBioscience) and TNFα-APC/BV421 (eBioscience). Relevant isotype controls were used to enable correct compensation and confirm antibody specificity. Stained cells were analyzed with a BD FACSCanto II flow cytometer. Analysis was performed with BD FACSDiva Software.

T cells = conditions: previously described, refs (1), (2), (6); cited from earlier work
[6] = test system: Tumor infiltrating T-lymphocytes from two melanoma patients; experiment: Intracellular cytokine staining of tumor infiltrating T-lymphocytes; assay type: cell-based, human; conditions: TILs from two melanoma patients
Experimental: as §1
To detect cell subpopulations that produced cytokines, we stimulated a PD-L1-specific T-cell culture (previously described (1)) and a PD-L2-specific T-cell culture with 5 μg/ml of relevant or irrelevant peptide, and incubated the cells for 5 h at 37° C. with 5% CO2. After 1 h of incubation, we added GolgiPlug (BD), diluted at 1:200. […] Stained cells were analyzed with a BD FACSCanto II flow cytometer. […]

[7] = test system: PD-L2 T cell culture-A and -B (PD-L205-specific T cells); experiment: Intracellular cytokine staining of PD-L2-specific T-cell cultures; assay type: cell-based, human
Experimental: as §3, §4, §6

[8] = test system: PD-L2 T cell culture-A and -B (PD-L205-specific T cells); experiment: ELISPOT assay on PD-L2-specific T-cell cultures; assay type: cell-based, human; conditions: both PD-L2 specific cultures
Experimental: as §2, with “v5.1. […]” for “v5.1.”

## LLLMLSLEL (Peptide fragment of human PDL2) [PD-L201, HLA-A2 restricted peptide fragment of human PD-L2]
[1]
  IFN-γ ELISPOT response, significance according to the DFR test: statistically significant
  IFN-γ ELISPOT response, significance according to the DFR×2 rule: statistically significant
  specific T-cell responses, IFN-γ ELISPOT in vitro assay: detected immune responses
  immune responses, IFN-γ ELISPOT assay: weaker responses
[2]
  TNF-α ELISPOT response, significance according to the DFR test: statistically significant

## LLNAFTVTV (PD-L101 (PDL1 peptide))
[1]; PBMCs from patients with cancer that responded to PD-L205
  spontaneous T-cell responses, IFN-γ ELISPOT test: did not detect any immune response
[3]
  recognition and lysis of peptide-pulsed T2 cells by PD-L2 (PD-L205)-specific T-cell cultures: did not kill
[4]
  lysis of peptide-pulsed T2 cells by PD-L101-specific T cells: only lysed T2-cells pulsed with PD-L101
[5]
  cytokine release (IFN-γ and TNF-α) from PD-L101-specific CD8+ T cells: released cytokines only in response to PD-L101
T cells
  T cell response elicited by epitope: strong T cell response

## SLELQLHQIAALFTVTVPKEL (Peptide fragment of human PDL2) [PD-L2long1]
[1]
  CD4+ T cell responses against long peptides, IFN-γ ELISPOT assay: frequent but moderate responses

## ILKEPVHGV (HIV-1 (HLA-A2 high affinity binding epitope)) [HIV-1 pol476-484]
[3]
  recognition and lysis of peptide-pulsed T2 cells by PD-L2 (PD-L205)-specific T-cell cultures: did not recognize; also recorded: did not kill
[4]
  lysis of peptide-pulsed T2 cells by PD-L101-specific T cells: no cytotoxicity was observed

## MIFLLLMLSLELQLHQIAALFTVTV (Peptide fragment of human PDL2) [PD-L2long2]
[1]
  CD4+ T cell responses against long peptides, IFN-γ ELISPOT assay: frequent but moderate responses
[1]; PBMCs from four non-hodgkin lymphoma patients, DFR rule
  IFN-γ responses, in vitro ELISPOT assay: All four patients showed responses that were statistically significant
[6]
  IFN-γ CD4+ T-cell responses, intracellular cytokine staining: elicited IFN-γ CD4+ T-cell responses

## QIAALFTVTV (Peptide fragment of human PDL2) [PD-L205, HLA-A2 restricted peptide fragment of human PD-L2]
[1]
  IFN-γ ELISPOT response, significance according to the DFR test: statistically significant
  IFN-γ ELISPOT response, significance according to the DFR×2 rule: statistically significant
  specific T-cell responses, IFN-γ ELISPOT in vitro assay: detected immune responses
  immune responses, IFN-γ ELISPOT assay: strong immune responses
[1]; PBMCs from four donors, directly ex vivo without prior in vitro peptide stimulation, DFR rule
  ex vivo IFN-γ ELISPOT response: one of these donors showed an ex vivo IFN-γ response that was statistically significant
[1]; in general, across donors
  epitope dominance in eliciting immune responses: dominant PD-L2 epitope; also recorded: strongest responses
[2]
  TNF-α ELISPOT response, significance according to the DFR test: statistically significant
[7]; PD-L2 T cell culture-A
  CD4+ T cells with TNF-α release in response to peptide: about 4.5%
  CD8+ T cells with TNF-α release in response to peptide: ~1%
[7]; PD-L2 T cell culture-B
  CD4+ T cells with TNF-α release in response to peptide: about 7%
  CD8+ T cells with TNF-α release in response to peptide: ~2%
[8]
  IFN-γ and TNF-α T cell responses, ELISPOT: T cell responses were observed
[3]
  recognition and lysis of peptide-pulsed T2 cells by PD-L2 (PD-L205)-specific T-cell cultures: could indeed recognize
[3]; listed as PDL205
  recognition and lysis of peptide-pulsed T2 cells by PD-L2 (PD-L205)-specific T-cell cultures: recognized and lysed
[4]
  lysis of peptide-pulsed T2 cells by PD-L101-specific T cells: no cytotoxicity was observed

## FIFIATVIAL (Peptide fragment of human PDL2) [PD-L215, HLA-A2 restricted peptide fragment of human PD-L2]
[1]
  specific T-cell responses, IFN-γ ELISPOT in vitro assay: detected immune responses
